Results taken from US20070231837A1, “Method of Assessing Properties of Mammalian Cells, and Method of Diagnosing Cancer Using the Same” (priority 2004, published 2007).

System: breast cancer patients
Assay: Chemotherapeutic effect of anticancer agent: tumor size reduction evaluated by palpation in breast cancer patients
Format: in vivo, human
Description: An anticancer agent docetaxel (Aventis) was administered 4 times with an interval of 3 to 4 weeks, with 60 mg/M^2 (body surface area) per dosage for the breast cancer patients A through I. After the administration, the tumor size reduction was assessed.
A pathologist evaluated the tumors by palpation according to the criteria described in the following paper: Arbuck S G, Eisenhauer E A, Wanders J, Kaplan R S, Rubinstein L, Verweij J, Van Glabbeke M, van Oosterom A T, Christian M C, and Gwyther S G, “New guidelines to evaluate the response to treatment in solid tumors”, J. Natl. Cancer Inst 2000; 92: 205-21. When the tumor was evaluated with the result of “Complete response” and “Partial response”, the tumor was classified into the group of tumor size reduction. When the tumor was evaluated with the result of “Stable Disease” and “Progressive Disease”, the tumor was classified into the group of non-tumor size reduction.
An anticancer agent paclitaxel (Bristol Meyers Squibb) was administered once a week for 12 consecutive weeks, with 80 mg/M^2 (body surface area) per dosage for the breast cancer patients A through I (sic, correctly, J through P). After the administration, the tumor size reduction was assessed according to the same criterion as used in the administration of docetaxel.

[1] = docetaxel 60 mg/M^2 per dosage, 4 times with an interval of 3 to 4 weeks, breast cancer patients A through I

Compound	patients classified into non-tumor size reduction group (Stable Disease or Progressive Disease) [1]	patients classified into tumor size reduction group (Complete response or Partial response) [1]	patients who were assessed that the tumor size reduction was observed (paclitaxel 80 mg/M^2 per dosage, once a week for 12 consecutive weeks, breast cancer patients J through P)
CC(=O)O[C@@]12CO[C@@H]1C[C@H](O)[C@@]1(C)C(=O)[C@H](O)C3=C(C)[C@@H](OC(=O)[C@H](O)[C@@H](NC(=O)OC(C)(C)C)c4ccccc4)C[C@@](O)([C@@H](OC(=O)c4ccccc4)[C@H]21)C3(C)C [docetaxel]	A, B, C, and D	E, F, G, H, and I	
CC(=O)O[C@H]1C(=O)[C@@]2(C)[C@H]([C@H](OC(=O)c3ccccc3)[C@]3(O)C[C@H](OC(=O)[C@H](O)[C@@H](NC(=O)c4ccccc4)c4ccccc4)C(C)=C1C3(C)C)[C@]1(OC(C)=O)CO[C@@H]1C[C@@H]2O [paclitaxel]			K, L, M, N, O, and P
